Among the test systems are RXF 393 renal; HCT-116 colon; UACC-62 melanoma; HS 578T breast; SF-268 CNS; SK-MEL-2 melanoma; A498 renal; HOP-92 NSCLC.
Common to all, as to assay: DTP human tumour cell line panel, 48 h

The source of these data is PubChem BioAssay (NCI).

Molecules are shown by their SMILES.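 All cell lines were grown in 96-well plates and treated with compound for 48 hours. The concentration for 50% growth inhibition is given as GI50. TGI marks complete inhibition of growth.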

In the case of `[O]=[Sn]([CH]1CCCCC1)[CH]1CCCCC1`, the GI50 in the experiment with RXF 393 renal is 0.0962 µM; in the experiment with HCT-116 colon, 0.152 µM; in the experiment with UACC-62 melanoma, 0.208 µM; in the experiment with HS 578T breast it was 0.266 µM; with SF-268 CNS, 0.214 µM; in the experiment on SK-MEL-2 melanoma, 0.108 µM. The GI50 in the experiment on A498 renal is 0.167 µM; with HOP-92 NSCLC, 0.251 µM. For the same molecule, the TGI in the experiment with RXF 393 renal was 0.241 µM; with HCT-116 colon, 0.32 µM; in the experiment with UACC-62 melanoma, 0.743 µM; in the experiment on HS 578T breast, 1.52 µM; in the experiment on SF-268 CNS it was 0.654 µM; with SK-MEL-2 melanoma it was 0.284 µM. The TGI was found to be 0.451 µM with A498 renal and 1.2 µM with HOP-92 NSCLC.
In the case of `Nc1ccc(CC[C@H]2CCC/C=C/[C@@H]3C[C@H](O)C[C@H]3[C@H](O)/C=C/C(=O)O2)cc1`, the GI50 in the experiment with RXF 393 renal is 0.0215 µM; in the experiment with HCT-116 colon it was 0.0314 µM; in the experiment on UACC-62 melanoma, 0.0488 µM; in the experiment on HS 578T breast, less than 0.0163 µM; in the experiment on SF-268 CNS it was 0.0351 µM; in the experiment with SK-MEL-2 melanoma, 0.0381 µM. In addition, the GI50 was 0.0169 µM in the experiment on A498 renal and 0.0436 µM in the experiment with HOP-92 NSCLC. Also, the TGI in the experiment with RXF 393 renal is 0.0621 µM; in the experiment with HCT-116 colon, 0.114 µM; in the experiment with UACC-62 melanoma it was 14.1 µM; in the experiment on HS 578T breast, more than 58.9 µM; in the experiment on SF-268 CNS it was more than 100 µM; with SK-MEL-2 melanoma it was 0.18 µM. Besides, the results for the TGI in the experiment with A498 renal and in the experiment on HOP-92 NSCLC were 0.0491 µM and 0.53 µM, respectively.
On to `O=c1c(I)c[nH]cc1I`, for which the GI50 in the experiment with RXF 393 renal, in the experiment on HCT-116 colon, in the experiment on UACC-62 melanoma, with HS 578T breast, in the experiment on SF-268 CNS and with SK-MEL-2 melanoma was more than 100 µM throughout. The GI50 with A498 renal was more than 100 µM; with HOP-92 NSCLC it was 67.1 µM. Also, the TGI in the experiment with RXF 393 renal, in the experiment on HCT-116 colon, in the experiment with UACC-62 melanoma, in the experiment on HS 578T breast, in the experiment on SF-268 CNS and in the experiment with SK-MEL-2 melanoma was more than 100 µM each time. Further, the TGI with A498 renal and in the experiment with HOP-92 NSCLC was more than 100 µM each time.
Take `Cc1ccc(-c2nc(NCCOCCOCCN)nc(N3CCN(c4ccccn4)CC3)n2)cc1`: the GI50 in the experiment with RXF 393 renal was 13 µM; in the experiment on HCT-116 colon, 10 µM; in the experiment with UACC-62 melanoma, 5.99 µM; in the experiment with HS 578T breast, 15.9 µM; with SF-268 CNS it was 14.3 µM; with SK-MEL-2 melanoma it was 18 µM. In addition, the GI50 with A498 renal is 5.94 µM; with HOP-92 NSCLC it was 4.15 µM. In addition, the TGI in the experiment on RXF 393 renal is 28.2 µM; with HCT-116 colon, 27.8 µM; in the experiment on UACC-62 melanoma it was 13.7 µM; with HS 578T breast it was 42.3 µM; in the experiment with SF-268 CNS it was 29.9 µM; with SK-MEL-2 melanoma it was 35.9 µM. The TGI with A498 renal was 21.7 µM; with HOP-92 NSCLC it was 19 µM.
With `O=[N+]([O-])c1cccc(/C=N/Nc2ccc3ccccc3n2)c1O`, the TGI in the experiment on RXF 393 renal is 17.4 µM; in the experiment on HCT-116 colon, 4.77 µM; with UACC-62 melanoma, 20.2 µM; in the experiment on HS 578T breast, more than 88.6 µM; in the experiment with SF-268 CNS, 15.3 µM; with SK-MEL-2 melanoma, 34.8 µM. Besides, the TGI was more than 66.9 µM in the experiment with A498 renal and more than 46.9 µM in the experiment on HOP-92 NSCLC.
On to `CNC(=O)CCN1CCN(CC/C=C2\c3ccccc3Sc3ccc(Cl)cc32)CC1`, for which the GI50 in the experiment with RXF 393 renal is 3.55 µM; in the experiment with HCT-116 colon it was 5.76 µM; in the experiment with UACC-62 melanoma it was 1.92 µM; in the experiment on HS 578T breast it was 3.67 µM; in the experiment with SF-268 CNS, 9.83 µM; with SK-MEL-2 melanoma, 14.1 µM. The values for the GI50 in the experiment with A498 renal and in the experiment on HOP-92 NSCLC were 6.89 µM and 5.75 µM, respectively. Moreover, the TGI is 20.4 µM in the experiment with RXF 393 renal; 20.9 µM with HCT-116 colon; 3.62 µM in the experiment on UACC-62 melanoma; 20.5 µM in the experiment with HS 578T breast; 23.9 µM in the experiment on SF-268 CNS; 32.4 µM with SK-MEL-2 melanoma. Further, the results for the TGI in the experiment on A498 renal and in the experiment with HOP-92 NSCLC were 19.9 µM and 27 µM, respectively.
Turning to `CCSC[C@@H]1C[C@](O)(c2ccccc2)[C@@H](c2ccccc2)O1`, the GI50 in the experiment on RXF 393 renal is 76.2 µM; in the experiment with HCT-116 colon, 58.6 µM; with UACC-62 melanoma, 69.2 µM; with HS 578T breast, 50.9 µM; in the experiment on SF-268 CNS, more than 78.6 µM; in the experiment with SK-MEL-2 melanoma, more than 100 µM. The figures for the GI50 with A498 renal and with HOP-92 NSCLC were 69.9 µM and 65.5 µM, respectively. The TGI in the experiment with RXF 393 renal was more than 100 µM; with HCT-116 colon it was more than 100 µM; with UACC-62 melanoma, more than 100 µM; in the experiment on HS 578T breast, more than 97.1 µM; in the experiment with SF-268 CNS, more than 100 µM; in the experiment with SK-MEL-2 melanoma it was more than 100 µM. Further, the TGI in the experiment on A498 renal and in the experiment with HOP-92 NSCLC was more than 100 µM each time.
In the case of `Cn1c(=O)c(-c2ccccc2Cl)cc2cnc(NC3CCOCC3)nc21`, the GI50 in the experiment on RXF 393 renal is 5.19 µM; in the experiment on HCT-116 colon it was 8.05 µM; with UACC-62 melanoma, 6.37 µM; with HS 578T breast, 9.12 µM; in the experiment on SF-268 CNS, 14.6 µM; with SK-MEL-2 melanoma it was 6.1 µM. In addition, the GI50 was 3.34 µM in the experiment with A498 renal and 4.27 µM in the experiment with HOP-92 NSCLC. For the same molecule, the TGI was more than 23.9 µM with RXF 393 renal; more than 25 µM in the experiment on HCT-116 colon; more than 25 µM in the experiment on UACC-62 melanoma; more than 25 µM in the experiment with HS 578T breast; more than 25 µM in the experiment with SF-268 CNS; 14.7 µM in the experiment on SK-MEL-2 melanoma. Further, the concentration for total growth inhibition (TGI) in the experiment with A498 renal is 15.5 µM; in the experiment on HOP-92 NSCLC, 21.6 µM.
`CC[C@H](C)[C@H](NC(=O)C12C3C4C1C1C2C3C41NC)C(=O)N(C)[C@H](C[C@@H](OC(C)=O)c1nc(C(=O)N[C@@H](Cc2ccccc2)C[C@H](C)C(=O)OC)cs1)C(C)C` (stereo partly specified): the GI50 in the experiment on RXF 393 renal was 0.413 µM; in the experiment on HCT-116 colon, 0.346 µM; in the experiment on UACC-62 melanoma it was 0.118 µM; with HS 578T breast, 0.693 µM; with SF-268 CNS, 1.3 µM; with SK-MEL-2 melanoma, 0.223 µM. The GI50 in the experiment with A498 renal was 0.296 µM; with HOP-92 NSCLC, more than 6.28 µM. The TGI in the experiment with RXF 393 renal was more than 14.3 µM; in the experiment with HCT-116 colon it was more than 14.3 µM; with UACC-62 melanoma, more than 14.3 µM; in the experiment on HS 578T breast it was more than 11.9 µM; in the experiment with SF-268 CNS it was more than 14.3 µM; with SK-MEL-2 melanoma, more than 14.3 µM. Besides, the results for the TGI in the experiment on A498 renal and in the experiment with HOP-92 NSCLC were 4.53 µM and more than 14.3 µM, respectively.
